Drawing on US6262293A, “ω-Cycloalkly-prostaglandin e2 derivatives” (Ono Pharmaceutical Co., Ltd., priority 1997, dated 2001), this text covers Ki for five compounds.

Holding throughout (details): CHO cell membrane fraction; 2.5 nM 3H-PGE2; pH 6.0; room temperature, 1 hour; more polar stereoisomer
The target of one assay is T1, mouse EP4 (Mus musculus, UniProt P32240).
T1 construct: expressed in transfected cells; host or cells: CHO cells (membrane fraction)
The experiment in a line: Binding assay using expression cell of prostanoids receptor subtype (competition of specific 3H-PGE2 binding), EP4. On the procedure:
(§1) (i) Binding Assay Using Expression Cell of Prostanoids Receptor Subtype
(§2) The preparation of membrane fraction was carried out according to the method of Sugimoto et. al., [J. Biol. Chem., 267, 6463-6466 (1992)], using expression CHO cell of the prostanoids receptor subtype (mouse EP1, EP2, EP3α, EP4).
(§3) The standard assay mixture containing membrane fraction (0.5 mg/ml) and [^3 H]-PGE2 ([…]) in a final volume of 200 μl was incubated at room temperature for 1 hour. The reaction was terminated by addition of ice-cooled buffer (3 ml). The mixture was filtered through a GF/B glass filter under reduced pressure. The radioactivity associated with the filter was measured by liquid scintillation counter.
(§4) Kd and Bmax values were determined from Scatchard plots [Ann. N. Y. Acad. Sci., 51, 660 (1949)]. Non-specific binding was calculated as the binding in the presence of an excess (2.5 μM) of unlabeled PGE2. In the experiment for competition of specific ^3 H-PGE2 binding by the compounds of the present invention, 2.5 nM of ^3 H-PGE2 and various concentrations of compounds of the present invention were added. The following buffer was used in all reactions.
(§5) Buffer: 10 mM potassium phosphate (pH 6.0), 1 mM EDTA, 10 mM MgCl2, 0.1 M NaCl.
(§6) All the values shown are those obtained using the more polar stereoisomer of the exemplified compounds. The dissociation constant; i.e. Ki (μM) of each compound was calculated by the following equation.

Another assay has as its target T2, mouse EP2 (Mus musculus, UniProt Q62053).
T2 construct: expressed in transfected cells; host or cells: CHO cells (membrane fraction)
Description: Binding assay using expression cell of prostanoids receptor subtype (competition of specific 3H-PGE2 binding), EP2. As for the experimental part:
as §1, §2, §3, §4, §5, §6

The target of the next assay is T3, mouse EP1 (Mus musculus, UniProt P35375).
T3 construct: expressed in transfected cells; host or cells: CHO cells (membrane fraction)
T3 sequence (P35375 1-405): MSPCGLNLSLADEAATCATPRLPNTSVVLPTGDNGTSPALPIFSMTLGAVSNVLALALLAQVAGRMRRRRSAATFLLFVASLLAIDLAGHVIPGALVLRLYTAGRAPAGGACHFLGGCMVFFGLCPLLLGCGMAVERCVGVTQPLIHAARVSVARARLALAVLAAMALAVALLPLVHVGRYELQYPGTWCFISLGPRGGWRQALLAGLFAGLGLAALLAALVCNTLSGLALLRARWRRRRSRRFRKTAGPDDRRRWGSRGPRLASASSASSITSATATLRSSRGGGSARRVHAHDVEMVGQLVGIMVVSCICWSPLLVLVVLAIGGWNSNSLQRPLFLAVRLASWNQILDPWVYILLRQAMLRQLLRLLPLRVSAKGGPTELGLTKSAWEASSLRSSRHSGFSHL
The experiment in a line: Binding assay using expression cell of prostanoids receptor subtype (competition of specific 3H-PGE2 binding), EP1. On the procedure:
as §1, §2, §3, §4, §5, §6

For another assay, the target named is T4, mouse EP3α (Mus musculus, UniProt P30557).
T4 construct: expressed in transfected cells; host or cells: CHO cells (membrane fraction)
T4 sequence (P30557 1-365): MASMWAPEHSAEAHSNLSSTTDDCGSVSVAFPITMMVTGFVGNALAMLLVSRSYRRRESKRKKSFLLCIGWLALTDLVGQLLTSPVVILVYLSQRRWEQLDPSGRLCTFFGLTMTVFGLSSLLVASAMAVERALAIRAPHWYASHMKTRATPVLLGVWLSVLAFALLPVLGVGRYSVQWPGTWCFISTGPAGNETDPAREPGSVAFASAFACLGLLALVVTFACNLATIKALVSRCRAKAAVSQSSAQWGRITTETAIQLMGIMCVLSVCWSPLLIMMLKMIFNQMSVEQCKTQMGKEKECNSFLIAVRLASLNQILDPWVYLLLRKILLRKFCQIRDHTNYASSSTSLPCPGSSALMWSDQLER
Description: Binding assay using expression cell of prostanoids receptor subtype (competition of specific 3H-PGE2 binding), EP3α. On the procedure:
as §1, §2, §3, §4, §5, §6

T2 sequence (Q62053 whole entry): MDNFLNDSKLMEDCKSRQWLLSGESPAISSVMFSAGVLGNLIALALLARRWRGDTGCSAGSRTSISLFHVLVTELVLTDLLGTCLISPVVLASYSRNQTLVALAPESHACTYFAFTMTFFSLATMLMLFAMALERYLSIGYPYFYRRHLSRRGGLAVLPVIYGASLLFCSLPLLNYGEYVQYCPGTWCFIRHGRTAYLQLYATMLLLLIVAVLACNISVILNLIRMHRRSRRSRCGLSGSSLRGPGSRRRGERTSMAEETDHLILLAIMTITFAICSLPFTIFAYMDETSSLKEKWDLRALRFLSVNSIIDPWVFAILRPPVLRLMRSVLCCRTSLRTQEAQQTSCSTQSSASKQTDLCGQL
T1 sequence (P32240 whole entry): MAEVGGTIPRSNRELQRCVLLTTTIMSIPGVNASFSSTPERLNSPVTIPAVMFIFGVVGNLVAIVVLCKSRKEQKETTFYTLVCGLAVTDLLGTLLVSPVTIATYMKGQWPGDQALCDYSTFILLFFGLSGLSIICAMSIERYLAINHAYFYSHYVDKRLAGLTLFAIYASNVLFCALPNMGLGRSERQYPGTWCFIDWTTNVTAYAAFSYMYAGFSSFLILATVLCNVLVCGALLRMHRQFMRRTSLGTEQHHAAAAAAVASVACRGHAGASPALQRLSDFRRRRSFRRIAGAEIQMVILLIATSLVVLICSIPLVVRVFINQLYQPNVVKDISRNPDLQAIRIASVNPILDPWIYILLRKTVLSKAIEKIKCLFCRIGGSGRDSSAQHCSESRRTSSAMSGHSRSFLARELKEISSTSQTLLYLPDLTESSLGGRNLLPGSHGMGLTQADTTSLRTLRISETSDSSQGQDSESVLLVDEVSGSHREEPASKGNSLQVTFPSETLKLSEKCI

Regarding `O=C(O)c1ccc(CSC2C(=O)C[C@@H](O)[C@@H]2/C=C/CC(O)C2(CC3CC3)CCC2)cc1` (stereo partly drawn) [Example 5(d), (11α,13E) -9-Oxo-11,16-dihydroxy-17,17-propano-19,20-methano-7-thia-1,6-(p-phenylene)-2,3,4,5-tetranorprost-13-enoic Acid], the Ki at mouse EP4 was 310 nM; on mouse EP2, 2 nM; at mouse EP1 it was > 10000 nM; on mouse EP3α, > 10000 nM.

As for `C=CCC1(C(O)C/C=C/[C@@H]2[C@@H](CCc3ccc(C(=O)O)cc3)[C@H](Cl)C[C@H]2O)CCC1` (stereo partly drawn) [9(c), (9β,11α,13E) -9-Chloro-11,16-dihydroxy-17,17-propano-1,6-(p-phenylene)-2,3,4,5-tetranorprost-13,19-dienoic acid], the Ki was > 10000 nM at mouse EP4, 5.1 nM on mouse EP2, > 10000 nM on mouse EP1 and > 10000 nM on mouse EP3α.

For `C=CCC1(C(O)C/C=C/[C@@H]2C(SCc3ccc(C(=O)O)cc3)C(=O)C[C@H]2O)CCC1` (stereo partly drawn) [Example 5(b), (11α,13E)-9-Oxo-11,16-dihydroxy-17,17-propano-7-thia-1,6-(p-phenylene)-2,3,4,5-tetranorprost-13,19-dienoic Acid], the Ki on mouse EP4 is 1500 nM; at mouse EP2, 19 nM; at mouse EP1, > 10000 nM; at mouse EP3α it was > 10000 nM.

`O=C(O)c1ccc(CC[C@H]2C(=O)C[C@@H](O)[C@@H]2/C=C/CC(O)C2(CC3CC3)CCC2)cc1` (single isomer, unassigned) [Example 2(b), (11α,13E)-9-Oxo-11,16-dihydroxy-17,17-propano-19,20-methano-1,6-(p-phenylene)-2,3,4,5-tetranorprost-13-enoic Acid]: the Ki is > 10000 nM on mouse EP4, 6.1 nM on mouse EP2, > 10000 nM on mouse EP1 and > 10000 nM at mouse EP3α.

Consider `C=CCC1(C(O)C/C=C/[C@H]2[C@H](O)CC(=O)[C@@H]2CCc2ccc(C(=O)O)cc2)CCC1` (single isomer, unassigned) [Example 2(a), (11α,13E)-9-Oxo-11,16-dihydroxy-17,17-propano-1,6-(p-phenylene)-2,3,4,5-tetranorprost-13,19-dienoic Acid], for which the Ki on mouse EP4 was > 10000 nM; at mouse EP2, 9.7 nM; at mouse EP1 it was > 10000 nM; at mouse EP3α, > 10000 nM.

In general, Ki refers to a dissociation constant, usually derived from enzyme kinetics or from competition with a known ligand. A low value points to tighter binding.
